Experimental data as given in PubChem BioAssay (NCI).
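How tested: cells in 96-well plates exposed to compound for 48 hours at five concentrations. The concentration for full growth arrest is given as TGI.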

How the values were obtained:
Experiment in all cases: DTP human tumour cell line panel, 48 h
M19-MEL melanoma = test system: M19-MEL melanoma
SK-OV-3 ovarian = test system: SK-OV-3 ovarian
OVCAR-4 ovarian = test system: OVCAR-4 ovarian
M14 melanoma = test system: M14 melanoma
A549 NSCLC = test system: A549 NSCLC
DLD-1 colon = test system: DLD-1 colon
UO-31 renal = test system: UO-31 renal
SNB-75 CNS = test system: SNB-75 CNS
SR leukemia = test system: SR leukemia
MALME-3M melanoma = test system: MALME-3M melanoma
SW-620 colon = test system: SW-620 colon
RPMI-8226 leukemia = test system: RPMI-8226 leukemia
SNB-78 CNS = test system: SNB-78 CNS
786-0 renal = test system: 786-0 renal
HCC-2998 colon = test system: HCC-2998 colon
A498 renal = test system: A498 renal
HT29 colon = test system: HT29 colon
UACC-257 melanoma = test system: UACC-257 melanoma
HOP-18 NSCLC = test system: HOP-18 NSCLC
SN12C renal = test system: SN12C renal
DMS 273 small cell lung = test system: DMS 273 small cell lung
OVCAR-8 ovarian = test system: OVCAR-8 ovarian
LOX IMVI melanoma = test system: LOX IMVI melanoma
DMS 114 small cell lung = test system: DMS 114 small cell lung
RXF-631 renal = test system: RXF-631 renal
TK-10 renal = test system: TK-10 renal
EKVX NSCLC = test system: EKVX NSCLC
SK-MEL-5 melanoma = test system: SK-MEL-5 melanoma
NCI-H226 lung = test system: NCI-H226 lung
IGROV1 ovarian = test system: IGROV1 ovarian
U251 CNS = test system: U251 CNS
SK-MEL-2 melanoma = test system: SK-MEL-2 melanoma
OVCAR-5 ovarian = test system: OVCAR-5 ovarian
CCRF-CEM leukemia = test system: CCRF-CEM leukemia
HL-60(TB) leukemia = test system: HL-60(TB) leukemia
NCI-H522 lung = test system: NCI-H522 lung
HOP-92 NSCLC = test system: HOP-92 NSCLC
HOP-62 NSCLC = test system: HOP-62 NSCLC
KM20L2 colon = test system: KM20L2 colon
NCI-H23 lung = test system: NCI-H23 lung
SF-295 CNS = test system: SF-295 CNS
SNB-19 CNS = test system: SNB-19 CNS
SF-539 CNS = test system: SF-539 CNS
SK-MEL-28 melanoma = test system: SK-MEL-28 melanoma
UACC-62 melanoma = test system: UACC-62 melanoma
CAKI-1 renal = test system: CAKI-1 renal
LXFL 529 NSCLC = test system: LXFL 529 NSCLC
SF-268 CNS = test system: SF-268 CNS
OVCAR-3 ovarian = test system: OVCAR-3 ovarian
HCT-116 colon = test system: HCT-116 colon
COLO 205 colon = test system: COLO 205 colon
K-562 leukemia = test system: K-562 leukemia
ACHN renal = test system: ACHN renal
MOLT-4 leukemia = test system: MOLT-4 leukemia
HCT-15 colon = test system: HCT-15 colon
KM12 colon = test system: KM12 colon
NCI-H460 lung = test system: NCI-H460 lung
RXF 393 renal = test system: RXF 393 renal

CCOc1ccc(NC(=O)/C(=C\c2ccc(C)cc2)C(C)=O)cc1
TGI (M19-MEL melanoma): > 100 µM
TGI (SK-OV-3 ovarian): > 100 µM
TGI (OVCAR-4 ovarian): > 100 µM
TGI (M14 melanoma): > 100 µM
TGI (A549 NSCLC): > 100 µM
TGI (DLD-1 colon): > 100 µM
TGI (UO-31 renal): > 100 µM
TGI (SNB-75 CNS): > 100 µM
TGI (SR leukemia): > 100 µM
TGI (MALME-3M melanoma): > 100 µM
TGI (SW-620 colon): > 100 µM
TGI (RPMI-8226 leukemia): > 100 µM
TGI (SNB-78 CNS): > 100 µM
TGI (786-0 renal): > 100 µM
TGI (HCC-2998 colon): > 100 µM
TGI (A498 renal): > 100 µM
TGI (HT29 colon): > 100 µM
TGI (UACC-257 melanoma): > 100 µM
TGI (HOP-18 NSCLC): > 100 µM
TGI (SN12C renal): > 100 µM
TGI (DMS 273 small cell lung): > 100 µM
TGI (OVCAR-8 ovarian): > 100 µM
TGI (LOX IMVI melanoma): > 100 µM
TGI (DMS 114 small cell lung): > 100 µM
TGI (RXF-631 renal): > 100 µM
TGI (TK-10 renal): > 100 µM
TGI (EKVX NSCLC): > 100 µM
TGI (SK-MEL-5 melanoma): > 100 µM
TGI (NCI-H226 lung): > 100 µM
TGI (IGROV1 ovarian): > 100 µM
TGI (U251 CNS): > 100 µM
TGI (SK-MEL-2 melanoma): > 100 µM
TGI (OVCAR-5 ovarian): > 100 µM
TGI (CCRF-CEM leukemia): > 100 µM
TGI (HL-60(TB) leukemia): > 100 µM
TGI (NCI-H522 lung): > 100 µM
TGI (HOP-92 NSCLC): > 100 µM
TGI (HOP-62 NSCLC): > 100 µM
TGI (KM20L2 colon): > 100 µM
TGI (NCI-H23 lung): > 100 µM
TGI (SF-295 CNS): > 100 µM
TGI (SNB-19 CNS): > 100 µM
TGI (SF-539 CNS): > 100 µM
TGI (SK-MEL-28 melanoma): > 100 µM
TGI (UACC-62 melanoma): > 100 µM
TGI (CAKI-1 renal): > 100 µM
TGI (LXFL 529 NSCLC): > 100 µM
TGI (SF-268 CNS): > 100 µM
TGI (OVCAR-3 ovarian): > 100 µM
TGI (HCT-116 colon): > 100 µM
TGI (COLO 205 colon): > 100 µM
TGI (K-562 leukemia): > 100 µM
TGI (ACHN renal): > 100 µM
TGI (MOLT-4 leukemia): > 100 µM
TGI (HCT-15 colon): > 100 µM

Cn1cnc([N+](=O)[O-])c1Sc1nc2ccccc2s1
TGI (M19-MEL melanoma): 24.3 µM
TGI (SK-OV-3 ovarian): 29.5 µM
TGI (OVCAR-4 ovarian): 13.1 µM
TGI (M14 melanoma): 29 µM
TGI (A549 NSCLC): 22.8 µM
TGI (DLD-1 colon): 18.1 µM
TGI (UO-31 renal): 21.5 µM
TGI (SNB-75 CNS): 29.3 µM
TGI (SR leukemia): 13.2 µM
TGI (MALME-3M melanoma): 13.2 µM
TGI (KM12 colon): 29.3 µM
TGI (SW-620 colon): 15.1 µM
TGI (RPMI-8226 leukemia): 43.1 µM
TGI (SNB-78 CNS): 33 µM
TGI (NCI-H460 lung): 24.3 µM
TGI (786-0 renal): 24.7 µM
TGI (HCC-2998 colon): 22 µM
TGI (HT29 colon): 28.5 µM
TGI (RXF 393 renal): 8.22 µM
TGI (HOP-18 NSCLC): 0.902 µM
TGI (SN12C renal): 17.6 µM
TGI (DMS 273 small cell lung): 2.71 µM
TGI (OVCAR-8 ovarian): 17.6 µM
TGI (LOX IMVI melanoma): 31 µM
TGI (DMS 114 small cell lung): 14.9 µM
TGI (RXF-631 renal): 16.9 µM
TGI (EKVX NSCLC): 17.8 µM
TGI (SK-MEL-5 melanoma): 27.1 µM
TGI (NCI-H226 lung): 22.1 µM
TGI (IGROV1 ovarian): 25.2 µM
TGI (U251 CNS): 24.4 µM
TGI (OVCAR-5 ovarian): 27.9 µM
TGI (HOP-92 NSCLC): 14.3 µM
TGI (HOP-62 NSCLC): 86.1 µM
TGI (KM20L2 colon): 23.5 µM
TGI (NCI-H23 lung): 23.9 µM
TGI (SF-295 CNS): 44.6 µM
TGI (SNB-19 CNS): 29.4 µM
TGI (SF-539 CNS): 25.1 µM
TGI (SK-MEL-28 melanoma): 21.1 µM
TGI (UACC-62 melanoma): 25.7 µM
TGI (CAKI-1 renal): 6.9 µM
TGI (LXFL 529 NSCLC): 24.7 µM
TGI (SF-268 CNS): 20.7 µM
TGI (OVCAR-3 ovarian): 14.5 µM
TGI (HCT-116 colon): 18.7 µM
TGI (COLO 205 colon): 14.5 µM
TGI (ACHN renal): 28.8 µM
TGI (MOLT-4 leukemia): 4.91 µM
TGI (HCT-15 colon): 14.6 µM

O=C1C2c3[nH]c4ccccc4c3C3CCCCC3C2C(=O)N1c1ccccc1 (stereo not given)
TGI (M19-MEL melanoma): > 100 µM
TGI (SK-OV-3 ovarian): 52.4 µM
TGI (OVCAR-4 ovarian): > 100 µM
TGI (M14 melanoma): > 100 µM
TGI (A549 NSCLC): > 100 µM
TGI (DLD-1 colon): > 100 µM
TGI (UO-31 renal): > 100 µM
TGI (SNB-75 CNS): 32.9 µM
TGI (SR leukemia): > 100 µM
TGI (MALME-3M melanoma): > 100 µM
TGI (KM12 colon): > 100 µM
TGI (SW-620 colon): > 100 µM
TGI (RPMI-8226 leukemia): > 100 µM
TGI (SNB-78 CNS): > 100 µM
TGI (NCI-H460 lung): > 100 µM
TGI (786-0 renal): > 100 µM
TGI (HCC-2998 colon): > 100 µM
TGI (A498 renal): > 100 µM
TGI (HT29 colon): > 100 µM
TGI (RXF 393 renal): 62.3 µM
TGI (HOP-18 NSCLC): 95.2 µM
TGI (SN12C renal): > 100 µM
TGI (DMS 273 small cell lung): > 100 µM
TGI (OVCAR-8 ovarian): > 100 µM
TGI (LOX IMVI melanoma): > 100 µM
TGI (DMS 114 small cell lung): > 100 µM
TGI (RXF-631 renal): > 100 µM
TGI (TK-10 renal): > 100 µM
TGI (EKVX NSCLC): > 100 µM
TGI (SK-MEL-5 melanoma): > 100 µM
TGI (NCI-H226 lung): > 100 µM
TGI (IGROV1 ovarian): > 100 µM
TGI (U251 CNS): > 100 µM
TGI (OVCAR-5 ovarian): > 100 µM
TGI (CCRF-CEM leukemia): > 100 µM
TGI (HL-60(TB) leukemia): > 100 µM
TGI (NCI-H23 lung): > 100 µM
TGI (SF-295 CNS): > 100 µM
TGI (SNB-19 CNS): > 100 µM
TGI (SF-539 CNS): > 100 µM
TGI (SK-MEL-28 melanoma): > 100 µM
TGI (UACC-62 melanoma): > 100 µM
TGI (LXFL 529 NSCLC): > 100 µM
TGI (SF-268 CNS): > 100 µM
TGI (OVCAR-3 ovarian): > 100 µM
TGI (COLO 205 colon): > 100 µM
TGI (K-562 leukemia): > 100 µM
TGI (ACHN renal): > 100 µM
TGI (MOLT-4 leukemia): > 100 µM
TGI (HCT-15 colon): > 100 µM
